Measured values from PubChem BioAssay AID330 (DTP/NCI, 2004).
Where “and” joins values, the source holds several entries; their conditions need not be identical. Equal values may be shown once. Toxic doses and inconclusive results are not listed. How the source made its calls: active means survival T/C of 150% or more; inactive means T/C below 125% in these data.

Tested on: P388 leukemia ip, CD2F1 mice, survival T/C
Assay: NCI In Vivo Anticancer Drug Screen. Data for tumor model P388 Leukemia (intraperitoneal) in CD2F1 (CDF1) mice
Conditions: endpoint: median survival time, higher = longer survival
How it was run: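 Mice carrying the transplanted tumor received test compound or vehicle. Survival was recorded in each group, and the value is the treated-group measurement divided by that of the vehicle-treated control group.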

[1] = dose: 50.0 mg/kg/injection, schedule: Q01DX005 (ip), vehicle: Klucel (hydroxypropylcellulose) (HPC)
[2] = dose: 100.0 mg/kg/injection, schedule: Q01DX005 (ip), vehicle: Klucel (hydroxypropylcellulose) (HPC)
[3] = dose: 200.0 mg/kg/injection, schedule: Q01DX005 (ip), vehicle: Klucel (hydroxypropylcellulose) (HPC)
[4] = dose: 60.0 mg/kg/injection, schedule: Q01DX005 (ip), vehicle: saline
[5] = dose: 120.0 mg/kg/injection, schedule: Q01DX005 (ip), vehicle: saline
[6] = dose: 240.0 mg/kg/injection, schedule: Q01DX005 (ip), vehicle: saline

Measured: T/C

Cc1nc(N)c2c3c(sc2n1)CCCC3
inactive: dose: 50.0 mg/kg/injection, schedule: Q01DX005 (ip), vehicle: saline with Tween-80 95 % of control | dose: 100.0 mg/kg/injection, schedule: Q01DX005 (ip), vehicle: saline with Tween-80 97 % of control | dose: 200.0 mg/kg/injection, schedule: Q01DX005 (ip), vehicle: saline with Tween-80 100 % of control

O=c1oc2c(c3c1CCCC3)c(=O)[nH]c1ccccc12
inactive: [1] 111 % of control | [2] 116 % of control | [3] 115 % of control

CC(C)(C)[OH+][O-].[O-]c1ccc(Cl)cc1C=Nc1ccc(Cl)cc1[O-].[O]=[V]
inactive: dose: 15.0 mg/kg/injection, schedule: Q01DX005 (ip), vehicle: saline with Tween-80 100 % of control | dose: 30.0 mg/kg/injection, schedule: Q01DX005 (ip), vehicle: saline with Tween-80 100 % of control | dose: 60.0 mg/kg/injection, schedule: Q01DX005 (ip), vehicle: saline with Tween-80 101 % of control and 93 % of control

O=C(NO)/C(CC(=O)c1cccc(O)c1)=N\O
inactive: [4] 99 % of control | [5] 100 % of control | [6] 105 % of control

O=C(/C=C/c1ccc(Cl)cc1)c1ccccc(=O)c1O
inactive: [1] 101 % of control | [2] 100 % of control

COc1ccc2c(C)cc(=O)oc2c1OCC(O)CN1CCOCC1 (stereo not drawn)
inactive: [4] 110 % of control | [5] 104 % of control | [6] 103 % of control

CCN(CC)CCOC(=O)c1c[nH]c2ccccc12
inactive: dose: 6.25 mg/kg/injection, schedule: Q01DX005 (ip), vehicle: Klucel (hydroxypropylcellulose) (HPC) 100 % of control | dose: 12.5 mg/kg/injection, schedule: Q01DX005 (ip), vehicle: Klucel (hydroxypropylcellulose) (HPC) 105 % of control | dose: 25.0 mg/kg/injection, schedule: Q01DX005 (ip), vehicle: Klucel (hydroxypropylcellulose) (HPC) 105 % of control | [1] 98 % of control and 95 % of control | [2] 100 % of control

CC1C=CCC(C)(C#N)C1 (stereo not drawn)
inactive: dose: 50.0 mg/kg/injection, schedule: Q01DX009 (ip), vehicle: Klucel (hydroxypropylcellulose) (HPC) 103 % of control | dose: 100.0 mg/kg/injection, schedule: Q01DX009 (ip), vehicle: Klucel (hydroxypropylcellulose) (HPC) 100 % of control | dose: 200.0 mg/kg/injection, schedule: Q01DX009 (ip), vehicle: Klucel (hydroxypropylcellulose) (HPC) 108 % of control

Cc1c(N=Nc2ccc(Br)cc2)c(-c2ccccc2)nn1C(=S)S
inactive: [1] 105 % of control | [2] 105 % of control | [3] 90 % of control

CC1(O)CCC(O)CC1CC(=O)O (stereo not drawn)
inactive: dose: 50.0 mg/kg/injection, schedule: Q01DX005 (ip), vehicle: saline 107 % of control | dose: 100.0 mg/kg/injection, schedule: Q01DX005 (ip), vehicle: saline 100 % of control | dose: 200.0 mg/kg/injection, schedule: Q01DX005 (ip), vehicle: saline 105 % of control

CSC(=S)N/N=C\C(O)C(O)C(O)C(O)CO (stereo not drawn)
inactive: dose: 6.25 mg/kg/injection, schedule: Q04DX003 (ip), vehicle: saline 104 % of control | dose: 12.5 mg/kg/injection, schedule: Q04DX003 (ip), vehicle: saline 109 % of control | dose: 25.0 mg/kg/injection, schedule: Q04DX003 (ip), vehicle: saline 102 % of control

CN(c1ccccc1)c1c2c(oc(=O)c1Cl)-c1ccccc1SC2
inactive: dose: 6.25 mg/kg/injection, schedule: Q01DX009 (ip), vehicle: saline with Tween-80 91 % of control | dose: 25.0 mg/kg/injection, schedule: Q01DX009 (ip), vehicle: saline with Tween-80 93 % of control | dose: 200.0 mg/kg/injection, schedule: Q01DX009 (ip), vehicle: saline with Tween-80 93 % of control

CCc1c2c(cc3c1[nH]c1ccccc13)C(=O)N(c1ccc(OC)cc1)C2=O
inactive: [1] 92 % of control | [2] 91 % of control | [3] 90 % of control

C#CC(C(O)c1ccccc1)N1CCOCC1 (stereo not drawn)
inactive: dose: 100.0 mg/kg/injection, schedule: Q04DX003 (ip), vehicle: saline 104 % of control | dose: 200.0 mg/kg/injection, schedule: Q04DX003 (ip), vehicle: saline 102 % of control | dose: 400.0 mg/kg/injection, schedule: Q04DX003 (ip), vehicle: saline 101 % of control
